PubChem BioAssay (NCI)
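Where inhibition never reached the appropriate level, the endpoint shown equals the highest concentration tested. Otherwise, values were interpolated linearly from a five-concentration, 48-hour dose response in 96-well plates. Abbreviation: GI50, concentration required for 50% inhibition of growth. TGI: concentration producing complete growth inhibition.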

Columns and labels:
Assay in all cases: NCI tumour cell line growth inhibition, 48 h
SF-539 CNS = test system: SF-539 CNS
SK-OV-3 ovarian = test system: SK-OV-3 ovarian
U251 CNS = test system: U251 CNS
HCT-15 colon = test system: HCT-15 colon
HT29 colon = test system: HT29 colon
SK-MEL-5 melanoma = test system: SK-MEL-5 melanoma
MALME-3M melanoma = test system: MALME-3M melanoma
HL-60(TB) leukemia = test system: HL-60(TB) leukemia
MCF7 breast = test system: MCF7 breast
NCI-H226 lung = test system: NCI-H226 lung

| Structure (SMILES) | GI50 (SF-539 CNS) | TGI (SF-539 CNS) | GI50 (SK-OV-3 ovarian) | TGI (SK-OV-3 ovarian) | GI50 (U251 CNS) | TGI (U251 CNS) | GI50 (HCT-15 colon) | TGI (HCT-15 colon) | GI50 (HT29 colon) | TGI (HT29 colon) | GI50 (SK-MEL-5 melanoma) | TGI (SK-MEL-5 melanoma) | GI50 (MALME-3M melanoma) | TGI (MALME-3M melanoma) | GI50 (HL-60(TB) leukemia) | TGI (HL-60(TB) leukemia) | GI50 (MCF7 breast) | TGI (MCF7 breast) | GI50 (NCI-H226 lung) | TGI (NCI-H226 lung) |
| --- | --- | --- | --- | --- | --- | --- | --- | --- | --- | --- | --- | --- | --- | --- | --- | --- | --- | --- | --- | --- |
| CCOC(=O)c1ccc2c(c1)[n+](=O)c(C(=O)c1ccc3ccccc3c1)c(C(F)(F)F)n2[O-] | 1.56 µM | 2.9 µM | 1.64 µM | 2.99 µM | 1.5 µM | 2.83 µM | 1.49 µM | 3.3 µM | 1.08 µM | 2.27 µM | 1.45 µM | 2.78 µM | 1.68 µM | 3.46 µM | 0.98 µM | 2.82 µM | 0.901 µM | 2.42 µM | 1.74 µM | 3.57 µM |
| CC1(C)CC(=O)C(C(c2cccc(O)c2O)C2C(=O)CC(C)(C)CC2=O)C(=O)C1 | – | > 100 µM | – | > 100 µM | – | > 100 µM | – | > 100 µM | – | > 100 µM | – | > 100 µM | – | > 100 µM | – | > 100 µM | – | > 100 µM | – | > 100 µM |
| CCOCCc1c(O)nc(SC)[nH]c1=O | > 100 µM | > 100 µM | > 100 µM | > 100 µM | > 100 µM | > 100 µM | > 100 µM | > 100 µM | > 100 µM | > 100 µM | > 100 µM | > 100 µM | > 100 µM | > 100 µM | > 100 µM | > 100 µM | > 100 µM | > 100 µM | > 100 µM | > 100 µM |
| Fc1ccc(-c2ncn(C3CCNCC3)c2-c2ccnc(Oc3ccccc3)n2)cc1 | > 25 µM | > 25 µM | 20.1 µM | > 25 µM | 15.2 µM | > 25 µM | > 22.8 µM | > 25 µM | 8.3 µM | > 25 µM | 4.87 µM | 14.1 µM | 18.4 µM | > 25 µM | > 16.6 µM | > 25 µM | 9.3 µM | > 25 µM | > 25 µM | > 25 µM |
| CCOC(=O)c1c[nH]c2c(OCc3ccccc3)c3ccccc3c(O)c2c1=O | 2.53 µM | 11.2 µM | 26.3 µM | > 100 µM | 5.78 µM | 25.4 µM | 11.1 µM | > 100 µM | 22.2 µM | > 100 µM | 2.55 µM | 7.52 µM | 5.63 µM | 26.6 µM | 40.7 µM | > 100 µM | 9.55 µM | > 67.4 µM | 4.28 µM | 20.8 µM |
| COc1ccccc1CNCCCN1C(=O)c2ccc3c4c(ccc(c24)C1=O)C(=O)N(CCCNCCCCNCCCCN)C3=O | 2.15 µM | 5.5 µM | 2.82 µM | 14.1 µM | 1.07 µM | 3.25 µM | 2.92 µM | 22.8 µM | 1.35 µM | > 28.2 µM | 0.822 µM | 2.23 µM | 0.971 µM | 2.48 µM | 1.28 µM | 5.71 µM | 0.498 µM | 2.24 µM | 1.83 µM | 6.65 µM |
| CSC(=S)N/N=C/c1ccccc1 | – | > 100 µM | – | > 100 µM | – | > 100 µM | – | > 100 µM | – | > 100 µM | – | > 100 µM | – | > 100 µM | – | > 100 µM | – | > 100 µM | – | > 100 µM |
| Nc1ncnc2c1c(-c1cccc(OCc3ccccc3)c1)cn2C1CC(CN2CCCC2)C1 (stereo not drawn) | 1.6 µM | 3.02 µM | 2.44 µM | 5.85 µM | 1.51 µM | 2.96 µM | 1.47 µM | 5.94 µM | 0.117 µM | 1.63 µM | 1.39 µM | 2.76 µM | 2.06 µM | 5.7 µM | 0.426 µM | 3.03 µM | 0.141 µM | 2 µM | 1.34 µM | 6.98 µM |
| COc1ccc(-c2cn(-c3ccc(Cl)cc3)c(=S)[nH]2)cc1OC | 29.9 µM | > 100 µM | 48.9 µM | > 100 µM | 12.3 µM | > 100 µM | 5.22 µM | > 100 µM | 3.89 µM | > 100 µM | 2.92 µM | > 100 µM | 68.4 µM | > 100 µM | 3.34 µM | 9.32 µM | 4.77 µM | > 100 µM | 3.62 µM | > 100 µM |
| C(=N/Nc1ncnc2nc[nH]c12)/c1ccccn1 | 1.3 µM | 5.72 µM | 0.456 µM | 15.6 µM | 0.569 µM | > 100 µM | 1.11 µM | > 100 µM | 4.07 µM | > 100 µM | 1.28 µM | 4.61 µM | 0.268 µM | 5.62 µM | 1.01 µM | 7.07 µM | 0.444 µM | > 100 µM | 1.57 µM | 53.1 µM |
| C=C1C(=O)O[C@H]2[C@H]1CC/C(COC(=O)/C=C\C(=O)NCc1ccc(Cn3c(=O)sn(-c4ccc(OC)cc4)c3=O)cc1)=C\CC[C@@]1(C)O[C@@H]21 | 0.736 µM | 1.41 µM | 4.77 µM | 11.6 µM | 0.834 µM | 2.19 µM | 0.443 µM | 1.56 µM | 0.395 µM | 1.64 µM | 0.828 µM | 1.53 µM | 0.806 µM | 1.56 µM | 0.876 µM | 3.74 µM | 0.292 µM | 1.17 µM | 1.28 µM | 5.51 µM |
| C[N+](C)(C)CCC(=O)N1C/C(=C\c2ccccc2)C(=O)/C(=C/c2ccccc2)C1 | – | 11.8 µM | – | 46.8 µM | – | 6 µM | – | 6.49 µM | – | 7.93 µM | – | 22.6 µM | – | 30.4 µM | – | 9.44 µM | – | 3.31 µM | – | 20 µM |
| COc1cc(C2c3cc4c(cc3[C@H](NC(=O)c3cccs3)C3COC(=O)[C@H]23)OCO4)cc(OC)c1OC (stereo partly drawn) | – | < 0.0141 µM | – | > 100 µM | – | 0.865 µM | – | – | – | 11.2 µM | – | 0.708 µM | – | > 100 µM | – | < 0.0251 µM | – | 31.3 µM | – | – |
